In article PMC12035807 (2025):

Assays:
[1] = system: 5'-Cy5-Ba SAM-VI riboswitch (RNA, riboswitch) GGCAUUGUGCCUCGCAUUGCACUCCGCGGGGCGAUAAGUCCUGAAAAGGGAUGUC; experiment: MST; conditions: 100 mM KCl, 25 mM MgCl2, 50 mM Tris-HCl pH 7.5, 2% DMSO
[2] = system: 5'-Cy5-Tte preQ1 riboswitch (RNA, riboswitch) CUGGGUCGCAGUAACCCCAGUUAACAAAACAAG; experiment: MST; conditions: 100 mM KCl, 25 mM MgCl2, 50 mM Tris-HCl pH 7.5, 2% DMSO
[3] = system: Ba SAM-VI riboswitch (label-free, IVT) (RNA, riboswitch) GGCAUUGUGCCUCGCAUUGCACUCCGCGGGGCGAUAAGUCCUGAAAAGGGAUGUC; experiment: ITC; conditions: 50 mM KCl, 10 mM MgCl2; 40 mM HEPES pH 7.0, 25 °C, 0.2% DMSO
[4] = system: 5'-Biotin-Ba SAM-VI riboswitch (RNA, riboswitch) GGCAUUGUGCCUCGCAUUGCACUCCGCGGGGCGAUAAGUCCUGAAAAGGGAUGUC; experiment: SPR, 1:1 kinetic fit; conditions: 150 mM NaCl, 6 mM MgCl2; 50 mM HEPES pH 7.0, 25 °C
[5] = system: 5'-Biotin-Tte preQ1 riboswitch (RNA, riboswitch) CUGGGUCGCAGUAACCCCAGUUAACAAAACAAG; experiment: SPR, 1:1 kinetic fit; conditions: 150 mM NaCl, 6 mM MgCl2, 50 mM HEPES pH 7.0, 25 °C
[6] = system: Tte preQ1 riboswitch (not labelled) (RNA, riboswitch) CUGGGUCGCAGUAACCCCAGUUAACAAAACAAG; experiment: ITC; conditions: 100 mM NaCl, 6 mM MgCl2, 50 mM HEPES pH 7.0, 25 °C; for KD: 0.2% DMSO; for binding: loose binding in SPR
[7] = system: 5'-Biotin-Tte preQ1 riboswitch (RNA, riboswitch) CUGGGUCGCAGUAACCCCAGUUAACAAAACAAG; experiment: SPR, Interaction Map analysis; conditions: 150 mM NaCl, 6 mM MgCl2; 50 mM HEPES pH 7.0, 25 °C, 2% DMSO
[8] = system: 5'-Biotin-Tte preQ1 riboswitch (RNA, riboswitch) CUGGGUCGCAGUAACCCCAGUUAACAAAACAAG; experiment: SPR; conditions: 150 mM NaCl, 6 mM MgCl2; 50 mM HEPES pH 7.0, 25 °C; loose unspecific, no saturation to 50 µM, KD not determinable

| binding ([2]; up to 1 mM) | KD [3] | KD [4] | binding ([1]; up to 1 mM) | SMILES | other results |
| --- | --- | --- | --- | --- | --- |
| no | 0.000671 ± 5.9e-05 mM | 3720 ± 410 nM |  | C[S+](CC[C@H](N)C(=O)O)C[C@H]1O[C@@H](n2cnc3c(N)ncnc32)[C@H](O)[C@@H]1O (some centres unmarked) | KD ([1]; 20 nM RNA): 0.718 ± 0.399 × 10^-6 M |
|  |  |  | no | N#Cc1c[nH]c2nc(N)[nH]c(=O)c12 | KD ([5]; 2% DMSO): 74.0 ± 29.4 nM; binding ([2]; 20 nM RNA): yes; KD [6]: 85.4 ± 3.3 nM; KD [7]: 134 nM |
|  |  |  | no | NCCCCNCCCNCCOc1ccc2[nH]c3ccccc3c2c1 | binding ([6]; RNA 15 µM, ligand 150 µM): no |
|  |  |  | no | NCCCCNCCCNCCOc1ccc2oc3ccccc3c2c1 | binding ([6]; RNA 15 µM, ligand 150 µM): no |
|  |  |  | no | NCCCNCCOc1ccc2[nH]c3ccccc3c2c1 | binding ([6]; RNA 30 µM, ligand 300 µM): no |
|  |  |  | no | NCCCNCCOc1ccc2oc3ccccc3c2c1 | binding ([6]; RNA 30 µM, ligand 300 µM): no |
| no | 0.00173 ± 0.00051 mM | 4170 ± 1560 nM |  | NCCCNC[C@H]1O[C@@H](n2cnc3c(N)ncnc32)[C@H](O)[C@@H]1O | binding ([1]; 20 nM RNA): yes; binding [8]: weak |
|  |  |  | no | NCCOc1ccc2[nH]c3ccccc3c2c1 | binding ([6]; RNA 15 µM, ligand 150 µM): no |
|  |  |  | no | NCCOc1ccc2oc3ccccc3c2c1 | binding ([6]; RNA 30 µM, ligand 300 µM): no |
|  |  |  | no | NCc1c[nH]c2nc(N)[nH]c(=O)c12 | KD ([5]; one representative sensorgram, replicates 18.5-47.4, mean not in material): 19.1 nM; binding ([2]; 20 nM RNA): yes; KD [6]: 23.1 ± 7.4 nM |
| no | 0.00331 ± 0.00021 mM | 12300 ± 1300 nM |  | Nc1ncnc2c1ncn2[C@@H]1O[C@H](CNCC[C@H](N)C(=O)O)[C@@H](O)[C@H]1O | KD ([1]; 20 nM RNA): 33.3 µM |
| no | 0.014 ± 0.0042 mM | 150000 ± 39000 nM |  | Nc1ncnc2c1ncn2[C@@H]1O[C@H](CSCC[C@H](N)C(=O)O)[C@@H](O)[C@H]1O | KD ([1]; 20 nM RNA): 34.4 ± 12.0 × 10^-6 M |
